# Patent US6953785B2, “Estra-1,3,5(10)-triene derivatives” (priority 2000, dated 2005)
# Biological target: T1, recombinant human estrone sulfatase (Homo sapiens, UniProt P08842)
# T1 sequence (P08842 22-583): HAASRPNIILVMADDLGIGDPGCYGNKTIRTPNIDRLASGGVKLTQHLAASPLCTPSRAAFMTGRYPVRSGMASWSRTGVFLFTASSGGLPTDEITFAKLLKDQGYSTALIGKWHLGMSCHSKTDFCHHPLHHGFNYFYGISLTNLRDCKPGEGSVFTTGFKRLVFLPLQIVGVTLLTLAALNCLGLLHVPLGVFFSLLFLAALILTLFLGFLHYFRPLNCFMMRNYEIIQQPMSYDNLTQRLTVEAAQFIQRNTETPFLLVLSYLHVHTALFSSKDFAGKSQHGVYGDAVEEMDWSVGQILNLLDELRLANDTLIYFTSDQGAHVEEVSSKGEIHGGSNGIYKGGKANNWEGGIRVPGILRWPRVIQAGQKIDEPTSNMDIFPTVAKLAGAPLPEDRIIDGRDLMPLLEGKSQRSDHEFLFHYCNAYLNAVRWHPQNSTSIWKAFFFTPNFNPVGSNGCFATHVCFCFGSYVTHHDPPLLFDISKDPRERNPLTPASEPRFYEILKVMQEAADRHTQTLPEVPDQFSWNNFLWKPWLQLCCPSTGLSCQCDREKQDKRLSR
# Test: Estrone sulfatase (steroid sulfatase) inhibition test (Method A), [3H]-estrone sulfate substrate
# Assay type: biochemical
# Details: [6,7-3H]-estrone sulfate 6.67 μmol/L, pH 7.5, 37° C., 30 minutes, read-out: Inhibitory Activity against Steroid Sulfatase IC50
# Procedure: Estrone Sulfatase (Steroid Sulfatase) Inhibition Test (Method A)
# [6,7-^3H]-Estrone sulfate (final concentration 6.67 μmol/L; 0.025 μCi/tube), recombinant human estrone sulfatase (33 ng/tube) and an estra-1,3,5(10)-triene derivative of each test concentration (the estra-1,3,5(10)-triene derivative was dissolved in 0.003 mL of DMSO) were added to a phosphate buffer (pH 7.5, final volume 0.15 mL) containing 0.25 mol/L of sucrose and 0.04 mol/L of nicotinamide, and the mixture was subjected to enzymatic reaction at 37° C. for 30 minutes. The recombinant human estrone sulfatase used herein was prepared from CHO (Chinese hamster ovary) cells, which were transfected with a human estrone sulfatase gene, after partial purification. After the enzymatic reaction, toluene (0.5 mL) was added to the reaction mixture followed by stirring, and the mixture was centrifuged at 9000 rpm for 5 minutes. The toluene extract layer was taken out, and the radioactivity of the [^3H]-estrone formed therein was measured with a liquid scintillation counter. The measurement was carried out at one time by duplication, and the assay fluctuation was 10% or less. The enzymatic reaction in the absence of the test compound was also carried out simultaneously. The inhibitory activity against estrone sulfatase of the test compound of each concentration was calculated according to the equation shown below. Inhibitory Activity against Estrone Sulfatase (%)=100−{100×[(A−C)/(B−C)]} wherein; • A: the amount of [^3H]-estrone formed in the presence of the test compound • B: the amount of [^3H]-estrone formed in the absence of the test compound • C: the amount of [^3H]-estrone formed in the absence of both of the recombinant human estrone sulfatase and the test compound.
# (§1) The inhibitory activity against estrone sulfatase of the estra-1,3,5(10)-triene derivative tested can be designated by the concentration (IC50) of the derivative that reduces the estrone sulfatase activity to a half of that in the control system not containing the test compound.
row,Compound,IC50 [nM]
1,CC12CCC3c4ccc(OS(N)(=O)=O)cc4CCC3C1CC=C2C(=O)N1CCCC1 (stereo not drawn) [Compound 1],4.4
2,CC12CCC3c4ccc(OS(N)(=O)=O)cc4CCC3C1CC=C2C(=O)NC1CCCC1 (stereo not drawn) [Compound 7],1
3,CC12CCC3c4ccc(OS(N)(=O)=O)cc4CCC3C1CC=C2C(=O)NCC1CC1 (stereo not drawn) [Compound 9],3.6
4,C=CCNC(=O)C1=CCC2C3CCc4cc(OS(N)(=O)=O)ccc4C3CCC12C (stereo not drawn) [Compound 10],5.6
5,COC(=O)CCCCCNC(=O)C1=CCC2C3CCc4cc(OS(N)(=O)=O)ccc4C3CCC12C (stereo not drawn) [Compound 14],10
6,COCCNC(=O)C1=CCC2C3CCc4cc(OS(N)(=O)=O)ccc4C3CCC12C (stereo not drawn) [Compound 18],2.8
7,CC12CCC3c4ccc(OS(N)(=O)=O)cc4CCC3C1CC=C2C(=O)NCCCCO (stereo not drawn) [Compound 22],9.8
8,COC(=O)C(NC(=O)C1=CCC2C3CCc4cc(OS(N)(=O)=O)ccc4C3CCC12C)C(C)C (stereo not drawn) [Compound 29],4.5
9,COC(=O)C1CCCN1C(=O)C1=CCC2C3CCc4cc(OS(N)(=O)=O)ccc4C3CCC12C (stereo not drawn) [Compound 33],5.1
10,CC12CCC3c4ccc(OS(N)(=O)=O)cc4CCC3C1CC=C2C(=O)Nc1ccccc1 (stereo not drawn) [Compound 34],10
11,CC12CCC3c4ccc(OS(N)(=O)=O)cc4CCC3C1CC=C2C(=O)Nc1cnccn1 (stereo not drawn) [Compound 40],9.4

# Second part, the compound after the results:
row,IC50 [nM],Compound
1,6,CC12CCC3c4ccc(OS(N)(=O)=O)cc4CCC3C1CCC2C(=O)N1CCCC1 (stereo not drawn) [Compound 73]
2,15.5,COCCNC(=O)C1CCC2C3CCc4cc(OS(N)(=O)=O)ccc4C3CCC12C (stereo not drawn) [Compound 76]
3,6.2,CCCNC(=O)C=C1CCC2C3CCc4cc(OS(N)(=O)=O)ccc4C3CCC12C (stereo not drawn) [Compound 81]

# Biological target: T1, recombinant human estrone sulfatase
# Test: Estrone sulfatase (steroid sulfatase) inhibition test (Method B), 4-methylumbelliferyl sulfate substrate
# Assay type: biochemical
# Details: 4-methylumbelliferyl sulfate 0.3 mmol/L, pH 7.5, 37° C., 1 hour, read-out: Inhibitory Activity against Steroid Sulfatase IC50
# Procedure: Estrone Sulfatase (Steroid Sulfatase) Inhibition Test (Method B)
# 4-Methylumbelliferyl sulfate (final concentration 0.3 mmol/L), recombinant human estrone sulfatase (7.8 ng/well) and an estra-1,3,5(10)-triene derivative of each test concentration (the estra-1,3,5(10)-triene derivative was dissolved in 0.001 mL of DMSO) were added to a phosphate buffer (pH 7.5, final volume 0.1 mL) containing 0.28 mol/L of sucrose and 0.04 mol/L of nicotinamide, and the mixture was subjected to enzymatic reaction at 37° C. for 1 hour. The recombinant human estrone sulfatase used herein was prepared from CHO (Chinese hamster ovary) cells, which were transfected with a human estrone sulfatase gene, after partial purification. After the enzymatic reaction, an aqueous solution of 2 mol/L glycine-sodium hydroxide (pH 10.3, 0.13 mL) was added thereto followed by stirring. Using a fluorescent plate reader (Cyto Fluor II), the fluorescent intensity of 4-methylumbelliferone formed in the system was measured. The measurement was carried out at one time by duplication, and the assay fluctuation was 10% or less. The enzymatic reaction in the absence of the test compound was also carried out simultaneously. The inhibitory activity against estrone sulfatase of the test compound of each concentration was calculated according to the equation shown below. Inhibitory Activity against Estrone Sulfatase (%)=100−[100×(A/B)] wherein; • A: the amount of 4-methylumbelliferone formed in the presence of the test compound, • B: the amount of 4-methylumbelliferone formed in the absence of the test compound.
# as §1
row,Compound,IC50 [nM]
1,CC12CCC3c4ccc(OS(N)(=O)=O)cc4CCC3C1CC=C2C(=O)N1CCN(c2ccccn2)CC1 (stereo not drawn) [Compound 5],3.7
2,CC(C)(CO)NC(=O)C1=CCC2C3CCc4cc(OS(N)(=O)=O)ccc4C3CCC12C (stereo not drawn) [Compound 23],26
3,CC12CCC3c4ccc(OS(N)(=O)=O)cc4CCC3C1CC=C2C(=O)NCc1ccc(C(=O)O)cc1 (stereo not drawn) [Compound 37],6
4,COc1ccc(NC(=O)C2=CCC3C4CCc5cc(OS(N)(=O)=O)ccc5C4CCC23C)cn1 (stereo not drawn) [Compound 39],3.7

# Further lines, results first:
row,IC50 [nM],Compound
1,5,COc1ccnc(CNC(=O)C2=CCC3C4CCc5cc(OS(N)(=O)=O)ccc5C4CCC23C)c1 (stereo not drawn) [Compound 47]
2,24.2,Cc1cnc(CNC(=O)C2=CCC3C4CCc5cc(OS(N)(=O)=O)ccc5C4CCC23C)cn1 (stereo not drawn) [Compound 49]
3,4.5,CC12CCC3c4ccc(OS(N)(=O)=O)cc4CCC3C1CC=C2C(=O)NCCCc1ccncc1 (stereo not drawn) [Compound 55]
4,11,CC12CCC3c4ccc(OS(N)(=O)=O)cc4CCC3C1CC=C2C(=O)Nc1ccon1 (stereo not drawn) [Compound 58]
5,8.9,CCn1nccc1NC(=O)C1=CCC2C3CCc4cc(OS(N)(=O)=O)ccc4C3CCC12C (stereo not drawn) [Compound 62]
6,6,CC12CCC3c4ccc(OS(N)(=O)=O)cc4CCC3C1CC=C2C(=O)NNc1ccccn1 (stereo not drawn) [Compound 69]
7,17,COCCOCCOC(=O)C1=CCC2C3CCc4cc(OS(N)(=O)=O)ccc4C3CCC12C (stereo not drawn) [Compound 71]
8,12,CCOC(=O)CC1CCC2C3CCc4cc(OS(N)(=O)=O)ccc4C3CCC12C (stereo not drawn) [Compound 83]
9,10.3,CCCNC(=O)CC1CCC2C3CCc4cc(OS(N)(=O)=O)ccc4C3CCC12C (stereo not drawn) [Compound 85]
10,11,CC12CCC3c4ccc(OS(N)(=O)=O)cc4CCC3C1CCC2CC(=O)N1CCOCC1 (stereo not drawn) [Compound 88]
11,12,CC12CCC3c4ccc(OS(N)(=O)=O)cc4CCC3C1CC=C2c1cccnc1 (stereo not drawn) [Compound 90]
12,21,Cc1coc(C2=CCC3C4CCc5cc(OS(N)(=O)=O)ccc5C4CCC23C)n1 (stereo not drawn) [Compound 92]
